Measured values published in ChEMBL document CHEMBL3885861, “Open TG-GATES”.

Organism: Rattus norvegicus
Experiment: Open TG-GATES - Regimen: Single
Assay type: toxicity, organism-based, Sprague-Dawley
Parameters: regimen Single, gender Male, age 6 weeks
Details: in vivo, po, 3 mg/kg, route gavage, dose level Middle; for APTT / Bas / Eos / Fbg / Hb / Ht / Lym / MCH / MCHC / MCV / Mono / PT / Plat / RBC / Ret / WBC: tissue Blood; for KIDNEY_L / KIDNEY_R / KIDNEY_TOTAL: tissue Kidney; for LIVER: tissue Liver

## C#C[C@]1(O)CC[C@H]2[C@@H]3CCc4cc(O)ccc4[C@H]3CC[C@@]21C [ETHINYL ESTRADIOL]
3 h
  TERMINAL_BW: 198.2 g
  APTT: 15.8 s
  Bas: 0%
  Eos: 1%
  Fbg: 257.8 mg/dL
  Hb: 12.9 g/dL
  Ht: 39.4%
  Lym: 75.8%
  MCH: 21.4 pg
  MCHC: 32.9%
  MCV: 65 fL
  Mono: 3.6%
  PT: 12.2 s
  Plat: 110.2 x10_4/uL
  RBC: 607 x10_4/ul
  Ret: 10.6%
  WBC: 86.9 x10_2/uL
  KIDNEY_L: 0.8 g
  KIDNEY_R: 0.8 g
  KIDNEY_TOTAL: 1.7 g
  LIVER: 8.5 g
3 h, tissue Plasma
  ALP: 1631.6 IU/L
  ALT: 47.8 IU/L
  AST: 80.2 IU/L
  BUN: 10.2 mg/dL
  CRE: 0.2 mg/dL
  Cl: 106.8 meq/L
  GLC: 183.4 mg/dL
  IP: 9.2 mg/dL
  K: 3.8 meq/L
  LDH: 49.2 IU/L
  PL: 142.6 mg/dL
  RALB: 2.5 g/dL
  TBIL: 0.038 mg/dL
  TC: 75.4 mg/dL
  TP: 5.4 g/dL
  gamma-GTP: 1.2 IU/L
6 h
  TERMINAL_BW: 195.3 g
  APTT: 14.7 s
  Bas: 0.2%
  Eos: 0.8%
  Fbg: 292.8 mg/dL
  Hb: 13 g/dL
  Ht: 38.9%
  Lym: 69.4%
  MCH: 21.9 pg
  MCHC: 33.4%
  MCV: 65.5 fL
  PT: 12.2 s
  Plat: 115.2 x10_4/uL
  RBC: 594.2 x10_4/ul
  Ret: 9.8%
  WBC: 98.2 x10_2/uL
  KIDNEY_L: 0.9 g
  KIDNEY_R: 0.9 g
  KIDNEY_TOTAL: 1.7 g
  LIVER: 8.1 g
6 h, tissue Plasma
  ALP: 1993.6 IU/L
  ALT: 54.6 IU/L
  AST: 106.2 IU/L
  BUN: 6.6 mg/dL
  CRE: 0.2 mg/dL
  Ca: 10.6 mg/dL
  Cl: 110 meq/L
  DBIL: 0.012 mg/dL
  IP: 10.4 mg/dL
  LDH: 44.6 IU/L
  Na: 144.4 meq/L
  PL: 106.4 mg/dL
  RALB: 2.5 g/dL
  TBIL: 0.038 mg/dL
  TC: 51.8 mg/dL
  TP: 5.4 g/dL
  gamma-GTP: 1.2 IU/L
9 h
  TERMINAL_BW: 196.1 g
  APTT: 15.7 s
  Bas: 0%
  Eos: 1%
  Fbg: 261.6 mg/dL
  Hb: 12.8 g/dL
  Ht: 37.6%
  Lym: 72%
  MCH: 22.3 pg
  MCHC: 33.9%
  MCV: 65.8 fL
  Mono: 3%
  PT: 12.7 s
  Plat: 117.1 x10_4/uL
  RBC: 572.4 x10_4/ul
  Ret: 10.2%
  WBC: 81.1 x10_2/uL
  KIDNEY_L: 0.8 g
  KIDNEY_R: 0.8 g
  KIDNEY_TOTAL: 1.7 g
  LIVER: 7.6 g
9 h, tissue Plasma
  ALP: 1530.6 IU/L
  ALT: 36.4 IU/L
  AST: 72 IU/L
  BUN: 9 mg/dL
  CRE: 0.2 mg/dL
  Ca: 10.4 mg/dL
  Cl: 109.2 meq/L
  DBIL: 0.012 mg/dL
  IP: 10.4 mg/dL
  K: 3.7 meq/L
  LDH: 39.6 IU/L
  Na: 145.4 meq/L
  PL: 95.4 mg/dL
  RALB: 2.6 g/dL
  TBIL: 0.048 mg/dL
  TC: 45.4 mg/dL
  TP: 5.3 g/dL
  gamma-GTP: 1 IU/L
24 h
  TERMINAL_BW: 200 g
  APTT: 18.1 s
  Bas: 0%
  Eos: 1%
  Fbg: 220.8 mg/dL
  Ht: 39%
  Lym: 77.8%
  MCH: 22 pg
  MCHC: 34%
  MCV: 64.6 fL
  Mono: 4%
  PT: 13.4 s
  Plat: 110.4 x10_4/uL
  RBC: 604.4 x10_4/ul
  Ret: 8.1%
  WBC: 92.7 x10_2/uL
  KIDNEY_L: 0.9 g
  KIDNEY_R: 0.9 g
  KIDNEY_TOTAL: 1.8 g
  LIVER: 9.6 g
24 h, tissue Plasma
  ALP: 2004.2 IU/L
  ALT: 43 IU/L
  AST: 70.6 IU/L
  BUN: 10.8 mg/dL
  CRE: 0.2 mg/dL
  Ca: 10.8 mg/dL
  Cl: 106.4 meq/L
  DBIL: 0.024 mg/dL
  IP: 7 mg/dL
  K: 4.3 meq/L
  LDH: 62.8 IU/L
  PL: 106.4 mg/dL
  RALB: 2.5 g/dL
  TBIL: 0.042 mg/dL
  TC: 39 mg/dL
  TP: 5.3 g/dL
